Assay results taken from patent publication US12139499B2, “Heteroaryl compounds for treating Huntington's disease” (PTC THERAPEUTICS, INC., priority 2018, dated 2024).
pIC50: −log10 of the molar value.

Tested on: Endogenous Huntingtin Protein
Test: Endogenous Huntingtin Protein Assay (ELISA-based MSD electrochemiluminescence)
Format: cell-based
Conditions: Table 1
Summary of the method: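 Sandwich MSD electrochemiluminescence immunoassay. Capture used MW1 (expanded polyglutamine) or MAB2166 antibody coated at 1 μg/mL overnight at 4 °C. Samples were bound overnight at 4 °C, then a rabbit monoclonal detection antibody and SULFO-TAG anti-rabbit, each at 0.25 μg/mL, were applied for 1 h at room temperature.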

SMILES	pIC50
Cc1cn2cc(-c3ncc4nc(N(C)C5CC6CCC(C5)N6)sc4n3)cc(F)c2n1 (stereo not drawn) [Compound 217, N-[(3-exo)-8-azabicyclo[3.2.1]oct-3-yl]-5-(8-fluoro-2-methylimidazo[1,2-a]pyridin-6-yl)-N-methyl[1,3]thiazolo[5,4-d]pyrimidin-2-amine]	≥ 7.00
CN(c1nc2cnc(-c3cc(F)c4nn(C)cc4c3)nc2s1)C1CC2CCC(C1)N2 (stereo not drawn) [Compound 218, N-[(3-exo)-8-azabicyclo[3.2.1]oct-3-yl]-5-(7-fluoro-2-methyl-2H-indazol-5-yl)-N-methyl[1,3]thiazolo[5,4-d]pyrimidin-2-amine]	6.30 to 7.00
Cc1cn2nc(-c3cc(F)c4nc(C5CCNCC5)sc4c3)cc(C(=O)O)c2n1 [Compound 219, 6-[4-fluoro-2-(piperidin-4-yl)-1,3-benzothiazol-6-yl]-2-methylimidazo[1,2-b]pyridazine-8-carboxylic acid]	5.52 to 6.00
COC(=O)Cc1cc(-c2cc(F)c3nc(C4CCNCC4)sc3c2)nn2cc(C)nc12 [Compound 220, methyl {6-[4-fluoro-2-(piperidin-4-yl)-1,3-benzothiazol-6-yl]-2-methylimidazo[1,2-b]pyridazin-8-yl}acetate]	≥ 7.00
Cc1cn2nc(-c3cc(F)c4nc(C5CCNCC5)sc4c3)cc(CC(=O)O)c2n1 [Compound 221, {6-[4-fluoro-2-(piperidin-4-yl)-1,3-benzothiazol-6-yl]-2-methylimidazo[1,2-b]pyridazin-8-yl]acetic acid]	≥ 7.00
Cc1cn2cc(-c3cc4sc(NC5CC(C)(C)NC(C)(C)C5)nc4cn3)cc(C#N)c2n1 [Compound 222, 2-methyl-6-{2-[(2,2,6,6-tetramethylpiperidin-4-yl)amino][1,3]thiazolo[4,5-c]pyridin-6-yl]imidazo[1,2-a]pyridine-8-carbonitrile]	≥ 7.00
Cc1cn2cc(-c3cc4sc(OC5CC6CCC(C5)N6)nc4cn3)cc(C#N)c2n1 (stereo not drawn) [Compound 223, 6-{2-[(3-exo)-8-azabicyclo[3.2.1]oct-3-yloxy][1,3]thiazolo[4,5-c]pyridin-6-yl}-2-methylimidazo[1,2-a]pyridine-8-carbonitrile]	6.30 to 7.00
Cc1cn2nc(-c3cc(F)c4nc(C5CCNCC5)sc4c3)cc(C(N)=O)c2n1 [Compound 224, 6-[4-fluoro-2-(piperidin-4-yl)-1,3-benzothiazol-6-yl]-2-methylimidazo[1,2-b]pyridazine-8-carboxamide]	≥ 7.00
Cc1cn2cc(-c3cc(F)c4nc(N(C)C5CCNCC5)sc4c3)cc2c(C)n1 [Compound 225, 6-(1,3-dimethylpyrrolo[1,2-a]pyrazin-7-yl)-4-fluoro-N-methyl-N-(piperidin-4-yl)-1,3-benzothiazol-2-amine]	≥ 7.00
Cc1cn2cc(-c3cc(F)c4nc(N(C)C5CCNCC5)sc4c3)cc(C#N)c2n1 [Compound 226, 6-{4-fluoro-2-[methyl(piperidin-4-yl)amino]-1,3-benzothiazol-6-yl}-2-methylimidazo[1,2-a]pyridine-8-carbonitrile]	≥ 7.00
Cc1cn2cc(-c3ncc4nc(N(C)C5C6CCC5CNC6)sc4n3)cc(F)c2n1 (stereo not drawn) [Compound 227, N-[(8-anti)-3-azabicyclo[3.2.1]oct-8-yl]-5-(8-fluoro-2-methylimidazo[1,2-a]pyridin-6-yl)-N-methyl[1,3]thiazolo[5,4-d]pyrimidin-2-amine]	5.52 to 6.00
Cc1cn2cc(-c3ncc4nc(N(C)C5C6CCC5CNC6)sc4n3)cc(C#N)c2n1 (stereo not drawn) [Compound 228, 6-{2-[(8-anti)-3-azabicyclo[3.2.1]oct-8-yl(methyl)amino][1,3]thiazolo[5,4-d]pyrimidin-5-yl}-2-methylimidazo[1,2-a]pyridine-8-carbonitrile]	6.00 to 6.30
Cc1cn2cc(-c3cc(F)c4nc(C5CCNCC5)sc4c3)nc2c(C)n1 [Compound 229, 2-[4-fluoro-2-(piperidin-4-yl)-1,3-benzothiazol-6-yl]-6,8-dimethylimidazo[1,2-a]pyrazine]	≥ 7.00
Cc1cn2nc(-c3cc(F)c4nc(C5CCNCC5)sc4c3)cc(C#N)c2n1 [Compound 230, 6-[4-fluoro-2-(piperidin-4-yl)-1,3-benzothiazol-6-yl]-2-methylimidazo[1,2-b]pyridazine-8-carbonitrile]	≥ 7.00
Cc1cn2nc(-c3cc(F)c4nc(N(C)C5CCNCC5)sc4c3)cc(C#N)c2n1 [Compound 231, 6-{4-fluoro-2-[methyl(piperidin-4-yl)amino]-1,3-benzothiazol-6-yl}-2-methylimidazo[1,2-b]pyridazine-8-carbonitrile]	≥ 7.00
Cn1cc2cc(-c3cc4sc(NC5CC(C)(C)NC(C)(C)C5)nc4cn3)cc(F)c2n1 [Compound 232, 6-(7-fluoro-2-methyl-2H-indazol-5-yl)-N-(2,2,6,6-tetramethylpiperidin-4-yl)[1,3]thiazolo[4,5-c]pyridin-2-amine]	≥ 7.00

SMILES	pIC50
Cn1cc2cc(-c3cc4sc(NC5CC(C)(C)NC(C)(C)C5)nc4cn3)cc(C#N)c2n1 [Compound 233, 2-methyl-5-{2-[(2,2,6,6-tetramethylpiperidin-4-yl)amino][1,3]thiazolo[4,5-c]pyridin-6-yl}-2H-indazole-7-carbonitrile]	≥ 7.00
Cc1cn2cc(-c3cc4sc(NC5CC(C)(C)NC(C)(C)C5)nc4cn3)cc(F)c2n1 [Compound 234, 6-(8-fluoro-2-methylimidazo[1,2-a]pyridin-6-yl)-N-(2,2,6,6-tetramethylpiperidin-4-yl)[1,3]thiazolo[4,5-c]pyridin-2-amine]	≥ 7.00
Cc1cn2nc(-c3cc(F)c4nc(N(C)C5CC6CCC(C5)N6)sc4c3)cc(C#N)c2n1 (stereo not drawn) [Compound 235, 6-{2-[(3-exo)-8-azabicyclo[3.2.1]oct-3-yl(methyl)amino]-4-fluoro-1,3-benzothiazol-6-yl}-2-methylimidazo[1,2-b]pyridazine-8-carbonitrile]	≥ 7.00
Cc1cn2nc(-c3cc(F)c4nc(N(C)C5CC6CCC(C5)N6)sc4c3)cc(C(N)=O)c2n1 (stereo not drawn) [Compound 236, 6-{2-[(3-exo)-8-azabicyclo[3.2.1]oct-3-yl(methyl)amino]-4-fluoro-1,3-benzothiazol-6-yl}-2-methylimidazo[1,2-b]pyridazine-8-carboxamide]	≥ 7.00
CN(c1nc2c(F)cc(-c3ccc4nn(C)cc4n3)cc2s1)C1CC2CCC(C1)N2 (stereo not drawn) [Compound 237, N-[(3-exo)-8-azabicyclo[3.2.1]oct-3-yl]-4-fluoro-N-methyl-6-(2-methyl-2H-pyrazolo[4,3-b]pyridin-5-yl)-1,3-benzothiazol-2-amine]	6.30 to 7.00
CN(c1nc2cnc(-c3cc(C#N)c4nn(C)cc4c3)cc2s1)[C@@H]1C[C@H]2CC[C@@H](C1)N2C [Compound 238, 2-methyl-5-(2-{methyl[(3-exo)-8-methyl-8-azabicyclo[3.2.1]oct-3-yl]amino}[1,3]thiazolo[4,5-c]pyridin-6-yl)-2H-indazole-7-carbonitrile]	≥ 7.00
Cc1cn2cc(-c3cc4sc(N(C)[C@@H]5C[C@H]6CC[C@@H](C5)N6C)nc4cn3)cc(F)c2n1 [Compound 239, 6-(8-fluoro-2-methylimidazo[1,2-a]pyridin-6-yl)-N-methyl-N-[(3-exo)-8-methyl-8-azabicyclo[3.2.1]oct-3-yl][1,3]thiazolo[4,5-c]pyridin-2-amine]	6.30 to 7.00
Cc1cn2cc(-c3cc4sc(N(C)[C@@H]5C[C@H]6CC[C@@H](C5)N6C)nc4cn3)cc(C#N)c2n1 [Compound 240, 2-methyl-6-(2-{methyl[(3-exo)-8-methyl-8-azabicyclo[3.2.1]oct-3-yl]amino}[1,3]thiazolo[4,5-c]pyridin-6-yl)imidazo[1,2-a]pyridine-8-carbonitrile]	6.30 to 7.00
CN(c1nc2cnc(-c3cc(F)c4nn(C)cc4c3)cc2s1)[C@@H]1C[C@H]2CC[C@@H](C1)N2C [Compound 241, 6-(7-fluoro-2-methyl-2H-indazol-5-yl)-N-methyl-N-[(3-exo)-8-methyl-8-azabicyclo[3.2.1]oct-3-yl][1,3]thiazolo[4,5-c]pyridin-2-amine]	6.30 to 7.00
CCN(c1nc2cnc(-c3cc(C#N)c4nc(C)cn4c3)nc2s1)C1CC(C)(C)NC(C)(C)C1 [Compound 242, 6-{2-[ethyl(2,2,6,6-tetramethylpiperidin-4-yl)amino][1,3]thiazolo[5,4-d]pyrimidin-5-yl)-2-methylimidazo[1,2-a]pyridine-8-carbonitrile]	6.30 to 7.00
CCN(c1nc2cnc(-c3cc(F)c4nc(C)cn4c3)nc2s1)C1CC(C)(C)NC(C)(C)C1 [Compound 243, N-ethyl-5-(8-fluoro-2-methylimidazo[1,2-a]pyridin-6-yl)-N-(2,2,6,6-tetramethylpiperidin-4-yl)[1,3]thiazolo[5,4-d]pyrimidin-2-amine]	6.30 to 7.00
CN1[C@@H]2CC[C@H]1C[C@H](Nc1nc3cnc(-c4cc(C#N)c5nn(C)cc5c4)cc3s1)C2 [Compound 244, 2-methyl-5-(2-{[(3-exo)-8-methyl-8-azabicyclo[3.2.1]oct-3-yl]amino][1,3]thiazolo[4,5-c]pyridin-6-yl)-2H-indazole-7-carbonitrile]	5.52 to 6.00
Cc1cn2cc(-c3cc4sc(N[C@@H]5C[C@H]6CC[C@@H](C5)N6C)nc4cn3)cc(C#N)c2n1 [Compound 245, 2-methyl-6-(2-{[(3-exo)-8-methyl-8-azabicyclo[3.2.1]oct-3-yl]amino][1,3]thiazolo[4,5-c]pyridin-6-yl)imidazo[1,2-a]pyridine-8-carbonitrile]	5.52 to 6.00
CN1[C@@H]2CC[C@H]1C[C@H](Nc1nc3cnc(-c4cc(F)c5nn(C)cc5c4)cc3s1)C2 [Compound 246, 6-(7-fluoro-2-methyl-2H-indazol-5-yl)-N-[(3-exo)-8-methyl-8-azabicyclo[3.2.1]oct-3-yl][1,3]thiazolo[4,5-c]pyridin-2-amine]	5.52 to 6.00
Cc1cn2cc(-c3cc4sc(N[C@@H]5C[C@H]6CC[C@@H](C5)N6C)nc4cn3)cc(F)c2n1 [Compound 247, 6-(8-fluoro-2-methylimidazo[1,2-a]pyridin-6-yl)-N-[(3-exo)-8-methyl-8-azabicyclo[3.2.1]oct-3-yl][1,3]thiazolo[4,5-c]pyridin-2-amine]	6.30 to 7.00
